Measured values from patent US10000469B2, “Heat shock protein 70 (hsp-70) receptor ligands” (Duke University, priority 2014, dated 2018).

Columns and labels:
Hsp70i C306D mutant = target: T1, Hsp70i C306D mutant (Homo sapiens, UniProt P0DMV8, C306D); test: Thermofluor assay, Hsp70i C306D mutant; format: binding; details: ±ATP
T1 construct: His tag (cleaved yes); made in house
Experimental: Protein Purification: Plasmids were provided for human HSPA1A, HSPA8, and HSPA1A C306D. Plasmids were transformed in Rosetta competent cells and single colonies were picked from streaked LB/ampicillin/chloramphenicol plates. Cultures were grown at 37° C. for 4-6 hours, were cooled to 15° C. and expression was induced overnight with 200 uM isopropyl 1-thio-β-D-galactopyranoside. Cells were pelleted and resuspended in Ni-lysis buffer (50 mM Na2HPO4, 300 mM NaCl, 10 mM Imidazole, 0.05% Tween-20) supplemented with Complete Mini protease inhibitor tablets (Roche, Mannheim, Germany) and […], and then sonicated. The cells were again pelleted and the supernatant was incubated with complete His-Tag purification resin (Roche, Mannheim, Germany) for 5 hours at 4° C. The resin was washed with Ni-wash buffer (50 mM Na2HPO4, 300 mM NaCl, 20 mM Imidazole, 0.05% Tween-20) and eluted with Ni-elution buffer (50 mM Na2HPO4, 300 mM NaCl, 250 mM Imidazole, 0.05% Tween-20). […]
Thermofluor Assay: SYPRO orange (Molecular Probes, Eugene, Oreg.) was diluted 1:1000 in 25 mM HEPES, 5 mM MgCl2, 10 mM KCl (pH 7.5) and purified Hsp70i, Hsc70, Hsp70i C306, or Hsp90, was then added to a final dilution of 0.04 mg/ml. […] A melt curve protocol (25° C. to 90° C., increasing 0.5° C. and a plate reading every 30 seconds) was run on a CFX384 Touch™ Real-Time PCR Detection System (BioRad). […]

MCF7 = test: Cell proliferation, MCF7; format: cell-based; details: MCF7
Experimental: Cell Proliferation: Cell proliferation was determined using a Hoechst stain (Sigma, St. Louis, Mo.) to quantify DNA. 5,000 cells of the designated cell line were plated in 96 well plates and treated the next day, designated as time point 0, with the indicated concentration of the specified compound maintained for the duration of the assay. At the indicated time points the media was removed and plated frozen at −80° C. Double distilled H2O was then added and the plates were incubated at 37° C. for 1 hour. After 1 hour the plates were frozen at −80° C. After freezing the plates were thawed and Hoechst stain was diluted 1:1000 in THE buffer (10 mM Tris, 2M NaCl, 1 mM Na2EDTA). The final fluorescence was measured on the Victor X2 plate reader at 355/460 nm, and cell proliferation was determined with the formula: % Cell Proliferation=100×(Sample fluorescence−background fluorescence)/(Control fluorescence−background fluorescence).

T1 sequence (P0DMV8 whole entry C306D): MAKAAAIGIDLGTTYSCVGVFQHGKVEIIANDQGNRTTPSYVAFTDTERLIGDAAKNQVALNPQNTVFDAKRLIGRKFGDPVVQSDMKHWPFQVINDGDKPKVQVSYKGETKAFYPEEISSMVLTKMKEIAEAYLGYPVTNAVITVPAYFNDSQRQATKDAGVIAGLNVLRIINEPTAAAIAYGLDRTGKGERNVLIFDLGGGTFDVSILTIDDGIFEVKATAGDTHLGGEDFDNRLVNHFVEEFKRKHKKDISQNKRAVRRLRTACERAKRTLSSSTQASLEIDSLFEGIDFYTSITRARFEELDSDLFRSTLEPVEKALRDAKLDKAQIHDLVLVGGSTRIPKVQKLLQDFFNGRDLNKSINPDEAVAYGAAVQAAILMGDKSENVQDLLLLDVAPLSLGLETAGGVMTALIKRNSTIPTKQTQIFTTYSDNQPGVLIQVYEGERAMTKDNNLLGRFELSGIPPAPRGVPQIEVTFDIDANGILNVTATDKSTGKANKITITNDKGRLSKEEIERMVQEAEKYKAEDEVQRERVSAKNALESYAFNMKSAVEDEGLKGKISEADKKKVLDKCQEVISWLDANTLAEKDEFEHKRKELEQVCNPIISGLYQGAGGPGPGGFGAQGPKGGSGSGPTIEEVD

CCCn1c(NC(=O)[C@H]2CCCN(c3cnccn3)C2)nc2ccccc21 [HS-72, (S)—N-(1-propyl-1H-benzo[d]imidazol-2-yl)-1-(pyrazin-2-yl)piperidine-3-carboxamide]
effect on Tm of the Hsp70i C306D mutant (Hsp70i C306D mutant): does not change
cell proliferation (MCF7): inhibits proliferation
cell proliferation, combination with HS-10 (MCF7): additive effect
cell proliferation, combination with HS-10 (MCF7; listed as HS72): synergism
